Patent US20250161391A1, “UROLITHIN COMBINATION” (Amazentis SA, priority 2023, published 2025)
“Also recorded” adds a separate entry of the source.

Tested on: mouse IL-6
Assay: IL-6 ELISA on culture medium of differentiated C2C12 cells exposed to a cytokine mixture (cytomix, CTX)
Assay type: cell-based
Settings: for % reduction IL-6: C2C12, 24 h pre-treatment, then 24 h with cytomix; for IL-6 / anti-inflammatory effect (FIG. 1): pre-treatment for 24 hours at 3.125 μM alone
Experimental: C2C12 Myoblasts purchased from ATCC (ref. CRL-1772) were seeded at 8000 cells per well in a 96 well plate (Greiner) using a DMEM Glutamax 4.5g D-glucose (Gibco, ref 31966021) supplemented with FIBS 10% (PanBiotech, ref P190902), 1% PenStrep (Biowest) and 1% Hepes (Biowest). Cells were then differentiated for 6 days using a differentiation medium (DMEM Glutamax 4.5g D-glucose (Gibco, ref 31966021), 2% Horse serum (Thermofisher, ref 160501229) 1% PenStrep and 1% Hepes). All media were sterilized with a 0.45 um filter unit (VWR). After 4 days of the differentiation cells were treated for 24 h with 1) Urolithin A (UA) resuspended in DMSO, 2) ginsenoside […]-3832) or 3) a combination of the two at the indicated doses. A cytokine mixture (“cytomix”) was added at day 5 in addition of the previous treatment for another 24 h, cytokines were respectively used at 5ng (mIFN-γ (Roche ref. 11276905001), TNF-α (Peprotech ref. 300-01A) and IL-1β (Proteintech ref. 200-01B)). The medium was collected and an ELISA for Interleukin-6 were performed following the instruction provided by the supplier (Proteintech ref. KE10007). In particular, the IL-6 ELISA kit is to be used to detect and quantify protein levels of endogenous mouse IL-6. The assay recognizes mouse IL-6. An antibody specific for mouse IL-6 has been pre-coated onto the microwells. The IL-6 protein in samples is captured by the coated antibody after incubation. Following extensive washing, another antibody of biotinylated specific for mouse IL-6 is added to detect the captured mouse IL-6 protein. For signal development, Streptavidin-HRP is added, followed by Tetramethyl-benzidine (TMB) reagent. Solution containing sulfuric acid is used to stop colour development and the colour intensity which is proportional to the quantity of bound protein is measurable at 450 nm with the correction wavelength set at 630 nm, using a microplate plate reader (Fluostar Optima, BMG Labtech). We exposed of C2C12 to a mix of pro-inflammatory cytokines (cytomix, CTX) to induce inflammation signals. Interleukin-6 (IL-6), a multifunctional cytokine produced in cells and induced by a variety of stimulating signals. IL-6 production and release in the media is a proxy of the inflammation induced by treatment with the cytokines part of the cytomix (Tosato & Jones (1990) Blood 75(6), 1305-10). With cytomix treatment, we observed a significant increase in Interleukin 6 (IL-6) secretion, measured as the concentration of IL-6 in the cell culture media.

**Q.** Which results are given for `CC(C)=CCC[C@](C)(O[C@@H]1O[C@H](CO)[C@@H](O)[C@H](O)[C@H]1O)[C@H]1CC[C@]2(C)[C@@H]1[C@H](O)C[C@@H]1[C@@]3(C)CC[C@H](O)C(C)(C)[C@@H]3[C@@H](O[C@@H]3O[C@H](CO)[C@@H](O)[C@H](O)[C@H]3O)C[C@]12C` [Ginsenoside Rg1, ginsenoside Rg1]?
**A.** % reduction IL-6 (CTX 5 ng vs. Rg1 3.125 μM + CTX): +9.8%; IL-6 / anti-inflammatory effect (FIG. 1) (cytomix-treated C2C12): no effects; IL-6 / anti-inflammatory effect (FIG. 1) (cytomix-treated C2C12, listed as Rg1): did not show any anti-inflammatory effect alone; also recorded: no effects; IL-6 (FIG. 1) (pre-treatment for 24 hours at 12.5 μM, cytomix-treated C2C12): non-significant trend in reduction; IL-6 (FIG. 1) (pre-treatment for 24 hours at 100 μM, cytomix-treated C2C12): significant decrease; IL-6, dose dependence (FIG. 1) (pre-treatment for 24 hours, 3.125 to 100 μM, cytomix-treated C2C12): dose dependent decrease in IL-6

**Q.** Which “% reduction IL-6” value (CTX 5 ng vs. UA 6.25 μM + CTX) does the source give for `O=c1oc2cc(O)ccc2c2ccc(O)cc12` [Urolithin A] here?
**A.** −16%

**Q.** What about the “IL-6 secretion (FIG. 1)” value (pre-treatment for 24 hours at 6.25 μM, cytomix-treated C2C12) of the same compound?
**A.** significantly decreased IL-6 secretion
